Data taken from ChEMBL document CHEMBL3046961, “Fungicidal activity of 12-propoxyimino-1, 15-pentadecanlactam on selected crops” (Crop Prot, 2009).

Assays:
[1] = test system: Botrytis cinerea; assay: Antifungal activity against Botryotinia fuckeliana in cucumber plant at 281 g/ha treated 2 times in 6 days interval measured after 7 days last treatment relative to control; assay type: functional
[2] = species on record: Oryctolagus cuniculus; assay: Toxicity in Oryctolagus cuniculus (rabbit) assessed as skin irritation; assay type: organism-based; conditions: in vivo
[3] = Acute dermal toxicity in Rattus norvegicus (rat); assay type: organism-based, Skin of body; conditions: in vivo, topical or ocular
[4] = species on record: Oryctolagus cuniculus; assay: Toxicity in Oryctolagus cuniculus (rabbit) assessed as eye irritation; assay type: organism-based; conditions: in vivo
[5] = Biodistribution in Gossypium hirsutum (cotton) plant leaf at 500 mg/L after 48 hr; assay type: ADME, organism-based; conditions: read-out: Drug uptake
[6] = Acute oral toxicity in Rattus norvegicus (rat); assay type: organism-based; conditions: in vivo
[7] = Biodistribution in Gossypium hirsutum (cotton) plant leaf at 500 mg/L after 36 hr; assay type: ADME, organism-based; conditions: read-out: Drug uptake
[8] = Biodistribution in Gossypium hirsutum (cotton) plant leaf at 500 mg/L after 16 hr; assay type: ADME, organism-based; conditions: read-out: Drug uptake
[9] = Biodistribution in Gossypium hirsutum (cotton) plant leaf at 500 mg/L after 24 hr; assay type: ADME, organism-based; conditions: read-out: Drug uptake
[10] = Biodistribution in Gossypium hirsutum (cotton) plant leaf at 500 mg/L after 8 hr; assay type: ADME, organism-based; conditions: read-out: Drug uptake
[11] = Biodistribution in Gossypium hirsutum (cotton) plant stem at 500 mg/L after 48 hr; assay type: ADME, organism-based; conditions: read-out: Drug uptake
[12] = Biodistribution in Gossypium hirsutum (cotton) plant leaf at 500 mg/L after 4 hr; assay type: ADME, organism-based; conditions: read-out: Drug uptake
[13] = Biodistribution in Gossypium hirsutum (cotton) plant stem at 500 mg/L after 24 hr; assay type: ADME, organism-based; conditions: read-out: Drug uptake
[14] = Biodistribution in Gossypium hirsutum (cotton) plant stem at 500 mg/L after 36 hr; assay type: ADME, organism-based; conditions: read-out: Drug uptake
[15] = Biodistribution in Gossypium hirsutum (cotton) plant stem at 500 mg/L after 16 hr; assay type: ADME, organism-based; conditions: read-out: Drug uptake
[16] = Biodistribution in Gossypium hirsutum (cotton) plant stem at 500 mg/L after 8 hr; assay type: ADME, organism-based; conditions: read-out: Drug uptake
[17] = Biodistribution in Gossypium hirsutum (cotton) plant stem at 500 mg/L after 4 hr; assay type: ADME, organism-based; conditions: read-out: Drug uptake
[18] = Biodistribution in Gossypium hirsutum (cotton) plant root at 500 mg/L after 48 hr; assay type: ADME, organism-based; conditions: read-out: Drug uptake
[19] = Biodistribution in Gossypium hirsutum (cotton) plant root at 500 mg/L after 36 hr; assay type: ADME, organism-based; conditions: read-out: Drug uptake
[20] = Biodistribution in Gossypium hirsutum (cotton) plant root at 500 mg/L after 24 hr; assay type: ADME, organism-based; conditions: read-out: Drug uptake
[21] = Biodistribution in Gossypium hirsutum (cotton) plant root at 500 mg/L after 16 hr; assay type: ADME, organism-based; conditions: read-out: Drug uptake
[22] = Biodistribution in Gossypium hirsutum (cotton) plant root at 500 mg/L after 8 hr; assay type: ADME, organism-based; conditions: read-out: Drug uptake
[23] = Biodistribution in Gossypium hirsutum (cotton) plant root at 500 mg/L after 4 hr; assay type: ADME, organism-based; conditions: read-out: Drug uptake
[24] = test system: Botrytis cinerea; assay: Antifungal activity against Botryotinia fuckeliana in cucumber plant at 450 g/ha treated 2 times in 6 days interval measured after 7 days last treatment relative to control; assay type: functional
[25] = test system: Botrytis cinerea; assay: Antifungal activity against Botryotinia fuckeliana in seven to eight-leaf stage of tomato plant at 504 g/ha treated 24 hr before inoculation measured after 5 days relative to control; assay type: functional
[26] = test system: Botrytis cinerea; assay: Antifungal activity against Botryotinia fuckeliana in seven to eight-leaf stage of tomato plant at 315 g/ha treated 24 hr before inoculation measured after 5 days relative to control; assay type: functional
[27] = test system: Botrytis cinerea; assay: Antifungal activity against Botryotinia fuckeliana in seven to eight-leaf stage of tomato plant at 168 g/ha treated 24 hr before inoculation measured after 5 days relative to control; assay type: functional
[28] = test system: Rhizoctonia solani; assay: Antifungal activity against Rhizoctonia solani in five-leaf stage of cucumber growing soil at 504 g/ha treated 48 hr before inoculation measured after 6 days relative to control by pot culture test; assay type: functional
[29] = test system: Rhizoctonia solani; assay: Antifungal activity against Rhizoctonia solani in five-leaf stage of cucumber growing soil at 315 g/ha treated 48 hr before inoculation measured after 6 days relative to control by pot culture test; assay type: functional
[30] = test system: Rhizoctonia solani; assay: Antifungal activity against Rhizoctonia solani in five-leaf stage of cucumber growing soil at 168 g/ha treated 48 hr before inoculation measured after 6 days relative to control by pot culture test; assay type: functional
[31] = test system: Botrytis cinerea; assay: Antifungal activity against Botryotinia fuckeliana in seven to eight-leaf stage of tomato plant at 563 g/ha treated 24 hr before inoculation measured after 5 days relative to control; assay type: functional
[32] = test system: Rhizoctonia solani; assay: Antifungal activity against Rhizoctonia solani in five-leaf stage of cucumber growing soil at 450 g/ha treated 48 hr before inoculation measured after 6 days relative to control by pot culture test; assay type: functional

## CCCON=C1CCCCCCCCCCC(=O)NCCC1
[1]
  Activity: 89.51%
[2]
  LD50: Non-toxic
[3]
  LD50: > 2000 mg/kg
[4]
  LD50: Toxic
[5]
  concentration at 48 h: 2530 ng/g
[6]
  LD50: > 5000 mg/kg
[7]
  concentration at 36 h: 2930 ng/g
[8]
  concentration at 16 h: 330 ng/g
[9]
  concentration at 24 h: 890 ng/g
[10]
  concentration at 8 h: 110 ng/g
[11]
  concentration at 48 h: 5120 ng/g
[12]
  concentration at 4 h: 40 ng/g
[13]
  concentration at 24 h: 4270 ng/g
[14]
  concentration at 36 h: 8950 ng/g
[15]
  concentration at 16 h: 2710 ng/g
[16]
  concentration at 8 h: 870 ng/g
[17]
  concentration at 4 h: 190 ng/g
[18]
  concentration at 48 h: 137000 ng/g
[19]
  concentration at 36 h: 116000 ng/g
[20]
  concentration at 24 h: 98000 ng/g
[21]
  concentration at 16 h: 97000 ng/g
[22]
  concentration at 8 h: 66700 ng/g
[23]
  concentration at 4 h: 54400 ng/g
[24]
  Activity: 95.14%
[25]
  Activity: 87.51%
[26]
  Activity: 85.82%
[27]
  Activity: 80.67%
[28]
  Activity: 73.59%
[29]
  Activity: 53.46%
[30]
  Activity: 38.99%

## CC(C)NC(=O)N1CC(=O)N(c2cc(Cl)cc(Cl)c2)C1=O [IPRODIONE]
[31]
  Activity: 90.39%

## CN(C)C(=S)SSC(=S)N(C)C [THIRAM]
[32]
  Activity: 42.14%
